{
  "source": "patent US20250152583A1",
  "about": "“AMILORIDE FOR USE IN THE TOPICAL TREATMENT OF SOMATOSENSORY IMPAIRMENTS” (ASSISTANCE PUBLIQUE - HOPITAUX DE PARIS, priority 2022, published 2025)",
  "assay_type_in_all_cases": "in vivo, human",
  "key": {"[1]": {"test_system": "patient with peripheral sensory neuropathy of feet and hands with hypoesthesia and proprioceptive disorders", "assay": "Case report: amiloride cream on hypoesthetic areas, neuropathy induced by Ado-trastuzumab emtansine (T-DM1)", "conditions": "cream of amiloride 5%, applied locally to hypoesthetic areas twice a day", "from_the_text": "A patient received Ado-trastuzumab emtansine (T-DM1), the first HER2-targeted antibody-drug conjugate to get the approval of the Food and Drug Administration (FDA), for the treatment of their metastatic HER2-positive breast cancer.\nFor more than 2 years, they had repeated falls due to loss of feeling in their feet, cuts on their hands, unnoticed burns, “splinters in the skin following their gardening activities” with infection in the aftermath because they had not realized it.\nThey complained of often dropping objects held in their hands and of no longer being able to sew due to the impossibility of holding a fine needle.\nThey were treated with a cream of amiloride 5% applied locally to the hypoesthetic areas twice a day."}, "[2]": {"test_system": "patient with hypoesthesia and proprioceptive disorders", "assay": "Case report: amiloride cream on hypoesthetic areas, hypoesthesia and proprioceptive disorders after bortezomib", "conditions": "cream of amiloride 10%, twice a day, after 1 month of use", "experimental": "A patient suffered from hypoesthesia and proprioceptive disorders with difficulty gripping the foot on the ground, impression of walking on cotton and complained of the impression of having a permanently rolled sock under the feet in addition to a sensation of having edematous toes since they received a treatment with bortezomib in 2016 for treating their myeloma. They were treated with a cream of amiloride 10% applied locally to the hypoesthetic areas twice a day."}, "[3]": {"test_system": "patient with hypoesthesia with lost sensations in feet and fingertips", "assay": "Case report: amiloride cream, hypoesthesia after oxaliplatine", "experimental": "A patient suffering from colon cancer was treated for 4 months with oxaliplatine in December 2019. They developed hypoesthesia with lost sensations in feet and in the fingertips of both hands and complained of having the impression of a permanently “rolled sock” under the feet. They were treated with a cream of amiloride 10% applied twice a day during one month and they noticed an improvement in the feeling of the right foot “rolled sock” (4/10 vs 8/10 before this treatment), a little less on the left foot (6/10 vs 8/10)."}, "[4]": {"test_system": "patients with somatosensory impairments", "assay": "Summary statement: patients treated with a topical composition of amiloride"}},
  "data": [
    {"compound": "NC(N)=NC(=O)c1nc(Cl)c(N)nc1N", "note": "[amiloride, 3,5-diamino-6-chloro-N-(diaminomethylidene) pyrazine-2-carboxamide]", "values": [
      {"measurement": "sensation of hands and feet", "setting": "[1]", "result": "regained the sensation of their hands and feet"},
      {"measurement": "impression of having a permanently rolled sock under the feet", "setting": "[2]", "result": "disappeared"},
      {"measurement": "impression of walking on cotton", "setting": "[2]", "result": "disappeared"},
      {"measurement": "sensation of edema of the toes", "setting": "[2]", "result": "has disappeared"},
      {"measurement": "feeling of hot and cold on the soles of the feet", "setting": "[2]; patient", "result": "feels better hot and cold on the soles of their feet"},
      {"measurement": "sensation \"rolled sock\"", "setting": "[3]; amiloride concentration in the cream increased to 15%", "result": "further decrease the sensation “rolled sock” even on the left foot"},
      {"measurement": "sensitivity in the fingertips of both hands", "setting": "[3]; cream of amiloride 10%, twice a day during one month", "result": "regained the sensitivity in the fingertips of both hands"},
      {"measurement": "feeling of \"rolled sock\", left foot", "setting": "[3]; cream of amiloride 10%, twice a day during one month, 8/10 before treatment", "result": "6/10"},
      {"measurement": "feeling of \"rolled sock\", right foot", "setting": "[3]; cream of amiloride 10%, twice a day during one month, 8/10 before treatment, patient", "result": "4/10"},
      {"measurement": "sensations in insensitive body areas, proprioception and mechanical allodynia", "setting": "[4]", "result": "able to recover sensations in insensitive body areas and a correct proprioception and noted the disappearance of mechanical allodynia"}
    ]}
  ]
}
